From ChEMBL document CHEMBL2034929, “A specific molecular beacon probe for the detection of human prostate cancer cells” (Bioorg Med Chem Lett, 2012)

Key:
[1] = Drug metabolism in 0.10 M tris-maleate buffer at pH 8 assessed as formation of N-[4-[(1E)-2-[4-(dimethylamino)phenyl]diazenyl]benzoyl]-glycine by mass spectrometry in presence of porcine liver carboxylesterase; type: physicochemical; settings: pig
LNCaP [2] = test: Drug metabolism in human LNCAP cell lysates assessed as formation of N-[4-[(1E)-2-[4-(dimethylamino)phenyl]diazenyl]benzoyl]-glycine; type: ADME, cell-based, Lysate
[3] = Drug metabolism in 0.10 M tris-maleate buffer at pH 8 assessed as increase in fluorescence at 10 uM after 5 hrs by UV-VIS spectrophotometry in presence of porcine liver carboxylesterase relative to control; type: physicochemical; settings: pig, pH 8, 5 h
[4] = Drug metabolism in 0.10 M tris-maleate buffer at pH 8 assessed as formation of 2-[3-[[(3'6'-Dihydroxy-3-oxospiro[isobenzofuran-1(3H), 9'-[9H]xanthen]-6-yl)carbonyl]amino]-1-propyn-1-yl]-benzenemethanol by mass spectrometry in presence of porcine liver carboxylesterase; type: physicochemical; settings: pig
LNCaP [5] = test: Drug metabolism in human LNCAP cell lysates at 10 uM after 26 hrs by fluorescence analysis relative to untreated human RWPE1 cells; type: ADME, cell-based, Lysate
LNCaP [6] = test: Drug metabolism in human LNCAP cell lysates at 10 uM after 10 days by fluorescence analysis; type: ADME, cell-based, Lysate; settings: 240 h
LNCaP [7] = test: Drug metabolism in human LNCAP cell lysates assessed as formation of 2-[3-[[(3'6'-Dihydroxy-3-oxospiro[isobenzofuran-1(3H), 9'-[9H]xanthen]-6-yl)carbonyl]amino]-1-propyn-1-yl]-benzenemethanol; type: ADME, cell-based, Lysate
LNCaP [8] = test: Drug metabolism in human LNCAP cells at 10 uM after 30 mins by fluorescence microscopy; type: ADME, cell-based; settings: 0.5 h
[9] = Drug metabolism in human LNCAP cells at 10 uM after 26 hrs by UV-VIS spectrophotometry; type: ADME, cell-based; settings: read-out: Drug metabolism
LNCaP [10] = test: Drug metabolism in human LNCAP cell lysates at 10 uM after 26 hrs by fluorescence analysis relative to human RWPE1 cells; type: ADME, cell-based, Lysate
[11] = Drug metabolism in human RWPE1 cells at 10 uM after 26 hrs by UV-VIS spectrophotometry; type: ADME, cell-based, RWPE-1; settings: read-out: Drug metabolism
[12] = Drug metabolism in human RWPE1 cells at 10 uM after 30 mins by fluorescence microscopy; type: ADME, cell-based; settings: rwpe-1, 0.5 h
LNCaP [13] = test: Drug metabolism in human LNCAP cell lysates at 10 uM after 26 hrs by UV-VIS spectrophotometry relative to human RWPE1 cells; type: ADME, cell-based, Lysate

Drug metabolism [1]: Active | Drug metabolism (LNCaP [2]): Active | fold change (FC) [3]: 23 | Drug metabolism [4]: Active | fold change (FC) (LNCaP [5]): 30.8 | Drug metabolism (LNCaP [6]): Active | Drug metabolism (LNCaP [7]): Active | Drug metabolism (LNCaP [8]): Active | metabolised at 26 h, 10 µM [9]: 29% | fold change (FC) (LNCaP [10]): 3.8 | metabolised at 26 h, 10 µM [11]: 10% | Drug metabolism [12]: Not Active | fold change (FC) (LNCaP [13]): 2.9
Structure (SMILES): CN(C)c1ccc(/N=N/c2ccc(C(=O)NCC(=O)OCc3ccccc3C#CCNC(=O)c3ccc4c(c3)C3(OC4=O)c4ccc(O)cc4Oc4cc(O)ccc43)cc2)cc1
